Data set [1] addresses T1, human PAR-2 (hPAR-2) receptor expressed in HEK-293 T cells in an endogenous manner (Homo sapiens, UniProt P55085).
T1 construct: human PAR-2 (hPAR-2) receptor expressed in HEK-293 T cells in an endogenous manner; endogenous in cells; host or cells: HEK-293 T cells
T1 sequence (P55085 26-397): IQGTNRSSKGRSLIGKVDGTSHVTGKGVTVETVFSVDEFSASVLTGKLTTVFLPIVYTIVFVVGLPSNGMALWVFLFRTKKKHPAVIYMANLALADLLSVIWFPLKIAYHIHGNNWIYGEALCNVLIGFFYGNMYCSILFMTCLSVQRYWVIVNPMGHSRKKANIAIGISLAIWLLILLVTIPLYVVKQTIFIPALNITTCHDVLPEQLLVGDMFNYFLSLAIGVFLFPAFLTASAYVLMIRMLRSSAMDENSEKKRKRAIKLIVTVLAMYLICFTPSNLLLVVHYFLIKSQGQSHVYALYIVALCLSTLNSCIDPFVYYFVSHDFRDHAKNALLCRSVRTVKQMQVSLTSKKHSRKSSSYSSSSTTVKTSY
In words: In vitro human PAR-2 functional antagonist activity using calcium assays (Fluo4AM, FLIPR Tetra). It is filed as cell-based. The note with it: HEK-293 T cells stimulated by an EC80 of the 2-Furoyl-LIGRLO-NH2 peptide after 10 min incubation with compound; 20 concentrations, duplicate, two independent experiments. The procedure, abridged:
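Fluo4AM-loaded HEK-293 T cells were exposed to compound for 10 min to read agonist effect. They were then stimulated with an EC80 of 2-Furoyl-LIGRLO-NH2 and intracellular calcium was recorded for 5 more min on FLIPR. Antagonism was scored against buffer basal and EC80 agonist-alone signals.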

Bounds are passed on as bounds.

In patent US20240066027A1 (DOMAIN THERAPEUTICS, priority 2020, published 2024) one finds IC50 and melting point data, which are given here for 26 molecules.

Usually IC50 stands for the concentration at which inhibition is half-maximal. What is called melting point is the temperature, or range, at which the solid turns liquid.

Regarding `CC(C)Cn1cc(C2CCCCC2)c2ccc(C(=O)N3CCNC(=O)C3(C)C)nc21` [Example 48, 4-(3-cyclohexyl-1-isobutyl-1H-pyrrolo[2,3-b]pyridine-6-carbonyl)-3,3-dimethylpiperazin-2-one], the melting point is 226 to 229 °C. Moreover, in data set [1], the IC50 was 0.02 to 10 µM. On the same counts, the results for `CC(C)Cn1cc(-c2ccc(C(F)(F)F)nc2)c2ccc(C(=O)N3CCNC(=O)C3(C)C)nc21` [Example 43, 4-(1-isobutyl-3-(6-(trifluoromethyl)pyridin-3-yl)-1H-pyrrolo[2,3-b]pyridine-6-carbonyl)-3,3-dimethylpiperazin-2-one] are > 250 °C and 0.02 to 10 µM. For `CC(C)Cn1cc(C2=CCNCC2)c2ccc(C(=O)N3CCNC(=O)C3(C)C)nc21` [Example 47, 4-(3-(1,2,3,6-tetrahydropyridin-4-yl)-1-isobutyl-1H-pyrrolo[2,3-b]pyridine-6-carbonyl)-3,3-dimethylpiperazin-2-one], in that order: 140 to 145 °C and > 10 µM. On the same counts, the results for `Cc1ccccc1-c1cn(CC(C)C)c2nc(C(=O)N3CCNC(=O)C3(C)C)ccc12` [Example 52, 4-[1-isobutyl-3-(o-tolyl)pyrrolo[2,3-b]pyridine-6-carbonyl]-3,3-dimethyl-piperazin-2-one] are 225 to 230 °C and 0.02 to 10 µM.

Turning to `CC(C)Cc1nn(-c2ccc(OC(F)(F)F)cc2)c2ccc(C(=O)N3CCNC(=O)C3(C)C)nc12` [Example 79, 4-(3-isobutyl-1-(4-(trifluoromethoxy)phenyl)-1H-pyrazolo[4,3-b]pyridine-5-carbonyl)-3,3-dimethylpiperazin-2-one], the melting point was in the range of 185 to 187 °C. For the same molecule, the IC50 in data set [1] lay within 0.02 to 10 µM. On the same counts, the results for `CC(C)Cn1cc(-c2ccc(N(C)C)nc2)c2ccc(C(=O)N3CCNC(=O)C3(C)C)nc21` [Example 109, 4-(3-(6-(dimethylamino)pyridin-3-yl)-1-isobutyl-1H-pyrrolo[2,3-b]pyridine-6-carbonyl)-3,3-dimethylpiperazin-2-one] are 205 to 210 °C and 0.02 to 10 µM.

Regarding `CC(C)Cn1cc(C2CCOCC2)c2ccc(C(=O)N3CCNC(=O)C3(C)C)nc21` [Example 46, 4-(1-isobutyl-3-(tetrahydro-2H-pyran-4-yl)-1H-pyrrolo[2,3-b]pyridine-6-carbonyl)-3,3-dimethylpiperazin-2-one], the melting point is > 250 °C. Moreover, the IC50 in data set [1] was > 10 µM. For `CC(C)Cn1cc(-c2ccc(C#N)nc2)c2ccc(C(=O)N3CCNC(=O)C3(C)C)nc21` [Example 110, 5-(6-(2,2-dimethyl-3-oxopiperazine-1-carbonyl)-1-isobutyl-1H-pyrrolo[2,3-b]pyridin-3-yl)picolinonitrile], in that order: 260 to 265 °C and 0.02 to 10 µM. On to `COc1ccc(Cn2cc(-c3ccc(Cl)c(F)c3)c3ccc(C(=O)N4CCNC(=O)C4(C)C)nc32)cc1` [Example 27, 4-(3-(4-chloro-3-fluorophenyl)-1-(4-methoxybenzyl)-1H-pyrrolo[2,3-b]pyridine-6-carbonyl)-3,3-dimethylpiperazin-2-one], for which the IC50 in data set [1] is 0.02 to 10 µM. The same measure, in the same setting: the same measure for `CCOCCn1cc(-c2ccc(Cl)c(F)c2)c2ccc(C(=O)N3CCNC(=O)C3(C)C)nc21` [Example 42, 4-(3-(4-chloro-3-fluorophenyl)-1-(2-ethoxyethyl)-1H-pyrrolo[2,3-b]pyridine-6-carbonyl)-3,3-dimethylpiperazin-2-one]: 0.02 to 10 µM; for `CC(C)Cn1cc(-c2cccc(F)c2)c2ccc(C(=O)N3CCNC(=O)C3(C)C)nc21` [Example 114, 4-(3-(3-fluorophenyl)-1-isobutyl-1H-pyrrolo[2,3-b]pyridine-6-carbonyl)-3,3-dimethylpiperazin-2-one]: 0.02 to 10 µM; for `Cc1ccc(-c2cn(CC(C)C)c3nc(C(=O)N4CCN(c5cc(C)c(C(=O)O)c(C)n5)CC4(C)C)ccc23)cc1F` [Example 142, 6-(4-(3-(3-fluoro-4-methylphenyl)-1-isobutyl-1H-pyrrolo[2,3-b]pyridine-6-carbonyl)-3,3-dimethylpiperazin-1-yl)-2,4-dimethylnicotinic acid]: < 0.02 µM. The same measure, in the same setting: the same measure for `CC(C)(C)c1nn(-c2ccc(Cl)c(F)c2)c2ncc(C(=O)N3CCNC(=O)C3(C)C)cc12` [Example 80, 4-(3-(tert-butyl)-1-(4-chloro-3-fluorophenyl)-1H-pyrazolo[3,4-b]pyridine-5-carbonyl)-3,3-dimethylpiperazin-2-one]: 0.02 to 10 µM.

With `Cc1cc(N2CCN(C(=O)c3ccc4c(-c5ccc(Cl)c(F)c5)cn(CC(=O)O)c4n3)C(C)(C)C2)nc(C)c1C(=O)O` [Example 133, 6-(4-(1-(carboxymethyl)-3-(4-chloro-3-fluorophenyl)-1H-pyrrolo[2,3-b]pyridine-6-carbonyl)-3,3-dimethylpiperazin-1-yl)-2,4-dimethylnicotinic acid], in data set [1], the half-inhibitory concentration (IC50) was > 10 µM. Same read-out and setting: under `Cc1cc(N(C)C2CCN(C(=O)c3ccc4c(-c5ccc(Cl)c(F)c5)cn(C(C)(C)C)c4n3)CC2)nc(C)c1C(=O)O` [Example 147, 6-((1-(1-(tert-butyl)-3-(4-chloro-3-fluorophenyl)-1H-pyrrolo[2,3-b]pyridine-6-carbonyl)piperidin-4-yl)(methyl)amino)-2,4-dimethyinicotinic acid] stands 0.02 to 10 µM; under `CC(C)(C)n1cc(-c2ccc(Cl)c(F)c2)c2ccc(C(=O)N3CCC(Cn4cc(C(=O)O)cn4)CC3)nc21` [Example 187, 1-((1-(1-(tert-butyl)-3-(4-chloro-3-fluorophenyl)-1H-pyrrolo[2,3-b]pyridine-6-carbonyl)piperidin-4-yl)methyl)-1H-pyrazole-4-carboxylic acid], 0.02 to 10 µM. Still for that read-out and setting: the same measure for `Cc1cc(N2CCCN(C(=O)c3ccc4c(-c5ccc(Cl)c(F)c5)cn(C(C)(C)C)c4n3)CC2)nc(C)c1C(=O)O` [Example 127, 6-(4-(1-(tert-butyl)-3-(4-chloro-3-fluorophenyl)-1H-pyrrolo[2,3-b]pyridine-6-carbonyl)-1,4-diazepan-1-yl)-2,4-dimethylnicotinic acid]: 0.02 to 10 µM. The same measure, in the same setting: under `O=C(c1ccc2c(-c3ccc(Cl)c(F)c3)cn(CC(F)(F)F)c2n1)N1CC2CCC(C1)O2` [Example 33, (8-oxa-3-azabicyclo[3.2.1]octan-3-yl)(3-(4-chloro-3-fluorophenyl)-1-(2,2,2-trifluoroethyl)-1H-pyrrolo[2,3-b]pyridin-6-yl)methanone] stands > 10 µM; under `Cc1cc(N2CCN(C(=O)c3ccc4c(-c5cc(F)c(F)c(F)c5)cn(CC(C)C)c4n3)C(C)(C)C2)nc(C)c1C(=O)O` [Example 143, 6-(4-(1-isobutyl-3-(3,4,5-trifluorophenyl)-1H-pyrrolo[2,3-b]pyridine-6-carbonyl)-3,3-dimethylpiperazin-1-yl)-2,4-dimethylnicotinic acid], < 0.02 µM; under `CC(C)(C)n1cc(-c2ccc(Cl)c(F)c2)c2ccc(C(=O)N3CCC4(CC3)NC(=O)NC4=O)nc21` [Example 24, 8-(1-(tert-butyl)-3-(4-chloro-3-fluorophenyl)-1H-pyrrolo[2,3-b]pyridine-6-carbonyl)-1,3,8-triazaspiro[4.5]decane-2,4-dione], 0.02 to 10 µM. For `CC(=O)c1cn(-c2ccc(Cl)c(F)c2)c2ccc(C(=O)N3CCC(CC(=O)O)CC3)cc12` [Example 206, 2-(1-(3-acetyl-1-(4-chloro-3-fluorophenyl)-1H-indole-5-carbonyl)piperidin-4-yl)acetic acid], the IC50 in data set [1] was > 10 µM.

Turning to `CCOCC(C)(C)n1cc(-c2ccc(Cl)c(F)c2)c2ccc(C(=O)N3CCN(c4cc(C)c(C(=O)O)c(C)n4)CC3(C)C)nc21` [Example 126, 6-(4-(3-(4-chloro-3-fluorophenyl)-1-(1-ethoxy-2-methylpropan-2-yl)-1H-pyrrolo[2,3-b]pyridine-6-carbonyl)-3,3-dimethylpiperazin-1-yl)-2,4-dimethylnicotinic acid], in data set [1], the IC50 was < 0.02 µM.

In the case of `CC(C)N1CNC(=O)C12CCN(C(=O)c1ccc3c(-c4ccc(Cl)c(F)c4)cn(C(C)(C)C)c3n1)CC2` [Example 207, 8-(1-(tert-butyl)-3-(4-chloro-3-fluorophenyl)-1H-pyrrolo[2,3-b]pyridine-6-carbonyl)-1-isopropyl-1,3,8-triazaspiro[4.5]decan-4-one], the IC50 in data set [1] is < 0.02 µM.

Take `Cc1nn(-c2ccc(Cl)c(F)c2)c2ccc(C(=O)N3CCNC(=O)C3(C)C)nc12` [Example 71, 4-(1-(4-chloro-3-fluorophenyl)-3-methyl-1H-pyrazolo[4,3-b]pyridine-5-carbonyl)-3,3-dimethylpiperazin-2-one]: the IC50 in data set [1] is 0.02 to 10 µM. Regarding `CC(C)(C)n1cc(-c2ccc(Cl)c(F)c2)c2ccc(C(=O)N3[C@@H]4CC[C@H]3COC4)nc21` [Example 19, ((1R,5S)-3-oxa-8-azabicyclo[3.2.1]octan-8-yl)(1-(tertbutyl)-3-(4-chloro-3-fluorophenyl)-1H-pyrrolo[2,3-b]pyridin-6-yl)methanone], the IC50 in data set [1] lay within 0.02 to 10 µM.

With `CC(C)(C)n1cc(-c2ccc(Cl)c(F)c2)c2ccc(C(=O)N3CCC(CC(N)=O)CC3)nc21` [Example 163, 2-(1-(1-(tert-butyl)-3-(4-chloro-3-fluorophenyl)-1H-pyrrolo[2,3-b]pyridine-6-carbonyl)piperidin-4-yl)acetamide], in data set [1], the concentration for half-maximal inhibition (IC50) was in the range of 0.02 to 10 µM.
